{"source": "patent US20180289008A1", "about": "“METHODS FOR WILDFIRE CONTROL, INVASIVE PLANT CONTROL, AND RESIDUAL CONTROL OF INVASIVE PLANTS” (priority 2017, published 2018)", "key": {"[1]": {"test_system": "Common mullein (Verbascum thapsus)", "assay": "Greenhouse pre-emergence dose-response bioassay (GR50)", "type": "in vivo", "from_the_text": "(§1) A greenhouse experiment was designed to determine if the extended control of Dalmatian toadflax and downy brome provided by indaziflam in the field was due to increased residual seedling control. This experiment was designed to compare indaziflam's pre-emergence efficacy to the currently recommended herbicides (aminocyclopyrachlor and aminopyralid) for annual, biennial, and perennial weed control in non-crop areas. […] This allows for direct comparisons between herbicides on an active ingredient basis for aminopyralid, aminocyclopyrachlor, and indaziflam.\n(§2) For the greenhouse bioassay, seeds were planted at a constant depth of 0.5 cm in 13- by 9- by 6-cm plastic containers, filled with an Otero sandy clay loam field soil (Coarse-loamy, mixed (calcareous), mesic Aridic Ustorthents) with 3.9% OM and pH 7.7. Seeding densities were adjusted based on germinability to reach a target density of 40 plants/pot. Plants were maintained in a greenhouse with a 25/20° C. day/night temperature with natural light supplemented with high-intensity discharge lamps to give a 15-h photoperiod. Plants were sub-irrigated as needed and misted overhead daily to reduce soil crusting.\n(§3) The greenhouse experiment was a completely randomized design with a factorial of seven herbicide rates and a non-treated control with three replicates per treatment. The experiments were conducted at two different times. A preliminary greenhouse study was conducted for each herbicide and species to determine a range of doses that would best fit a logistic regression. It is not unusual for both pre-emergence and post-emergence herbicides to provide control at lower than labeled rates, e.g., 0.5-560 g ai ha^−1 (aminocyclopyrachlor), 0.9-224 g ai ha^−1 (aminopyralid), and 0.05-11.7 g ai ha^−1 (indaziflam) in the greenhouse with ideal environmental conditions, so it was not surprising that herbicide doses for the regression analysis were much lower than recommended field use rates. Herbicides were applied pre-emergence using a Generation III research track sprayer (DeVries Manufacturing, Hollandale, Minn.) equipped with a TeeJet 8002 EVS flat-fan spray nozzle (TeeJet Spraying Systems Co., Wheaton, Ill.) at 187 L·ha-1 at 172 kPa.\n(§4) Plants were harvested at the soil surface approximately 4 to 5 week-after-treatment (WAT) depending on the growth stage of each species. Weights were recorded after samples were dried for 5 days at 60° C. Percent dry weight reduction was calculated relative to the non-treated control plants for each treatment.\n(§5) Data from the greenhouse dose-response experiment were first analyzed using the PROC MIXED method in SAS 9.3 with treatment as a fixed effect and experiment and replicate as random effects (SAS Institute 2010). Based on a non-significant homogeneity of variance (ANOVA) and experiment-by-herbicide rate interaction, results from the repeated experiments were pooled. The treatment effect was significant, therefore, nonlinear regression in Graphpad Prism 7.00 (GraphPad Software, La Jolla Calif. USA) was used to describe the response of the nine weed species to aminocyclopyrachlor, aminopyralid, and indaziflam. The herbicide concentrations resulting in 50% reduction in plant biomass (GR50) compared to the non-treated control were determined for each invasive weed species using four-parameter log-logistic regression. The equation used to regress herbicide concentration with percent reduction in plant dry biomass as compared to the non-treated control was:\n(§6) where C and D represent the lower and upper limits of the dose-response curve, respectively, and b represents the slope of the best-fitting curve through the GR50 value. For curve fitting and GR50 estimation, the model was constrained to a maximum of 100 and minimum of 0. Mean separation of herbicide GR50 values were analyzed by Fisher's Protected LSD test at the 5% level of probability. […]"}, "[2]": {"test_system": "Common teasel (Dipsacus fullonum)", "assay": "Greenhouse pre-emergence dose-response bioassay (GR50)", "type": "in vivo", "from_the_text": "as §1, §2, §3, §4, §5, §6"}, "[3]": {"test_system": "Curly dock (Rumex crispus)", "assay": "Greenhouse pre-emergence dose-response bioassay (GR50)", "type": "in vivo", "from_the_text": "as §1, §2, §3, §4, §5, §6"}, "[4]": {"test_system": "Dalmatian toadflax (Linaria dalmatica)", "assay": "Greenhouse pre-emergence dose-response bioassay (GR50)", "type": "in vivo", "from_the_text": "as §1, §2, §3, §4, §5, §6"}, "[5]": {"test_system": "Diffuse knapweed (Centaurea diffusa)", "assay": "Greenhouse pre-emergence dose-response bioassay (GR50)", "type": "in vivo", "from_the_text": "as §1, §2, §3, §4, §5, §6"}, "[6]": {"test_system": "Halogeton (Halogeton glomeratus)", "assay": "Greenhouse pre-emergence dose-response bioassay (GR50)", "type": "in vivo", "from_the_text": "as §1, §2, §3, §4, §5, §6"}, "[7]": {"test_system": "Marestail (Conyza Canadensis)", "assay": "Greenhouse pre-emergence dose-response bioassay (GR50)", "type": "in vivo", "from_the_text": "as §1, §2, §3, §4, §5, §6"}, "[8]": {"test_system": "Musk thistle (Carduus nutans)", "assay": "Greenhouse pre-emergence dose-response bioassay (GR50)", "type": "in vivo", "from_the_text": "as §1, §2, §3, §4, §5, §6"}, "[9]": {"test_system": "downy brome (Bromus tectorum)", "assay": "Greenhouse pre-emergence dose-response bioassay (GR50)", "type": "in vivo", "from_the_text": "as §1, §2, §3, §4, §5, §6"}, "[10]": {"test_system": "downy brome, common mullein, Canada thistle, teasel, houndstongue, Scotch thistle, diffuse knapweed, field bindweed", "assay": "Seedling control of invasive weeds versus untreated (FIG. 4A-4D)", "conditions": "in vivo"}, "[11]": {"conditions": "pH 7; cited from earlier work"}, "[12]": {"conditions": "average; cited from earlier work"}}, "note": "Where “and” joins values, the source holds several entries; their conditions need not be identical. Equal values may be shown once. Read-outs that look alike come from different tables or passages of the source.", "data": [{"smiles": "Cc1ccc2c(c1)[C@H](Nc1nc(N)nc(C(C)F)n1)[C@@H](C)C2", "note": "(mixture of isomers) [Indaziflam, N2-[(1R,2S)-2,3-dihydro-2,6-dimethyl-1H-inden-1-yl]-6-[(1RS)-1-fluoroethyl]-1,3,5-triazine-2,4-diamine]", "values": [{"measurement": "GR50 ratio Aminocyclopyrachlor/Indaziflam", "setting": "[1]", "result": 44.57}, {"measurement": "GR50 ratio Aminopyralid/Indaziflam", "setting": "[1]", "result": "106 and 106.43"}, {"measurement": "GR50 (herbicide dose resulting in 50% dry biomass reduction)", "setting": "[1]; pre-emergence", "result": 0.07, "unit": "a g ai ha^−1"}, {"measurement": "GR50 ratio Aminocyclopyrachlor/Indaziflam", "setting": "[2]", "result": 5.18}, {"measurement": "GR50 ratio Aminopyralid/Indaziflam", "setting": "[2]", "result": 0.56}, {"measurement": "GR50 (herbicide dose resulting in 50% dry biomass reduction)", "setting": "[2]; pre-emergence", "result": 1.33, "unit": "b g ai ha^−1"}, {"measurement": "GR50 ratio Aminocyclopyrachlor/Indaziflam", "setting": "[3]", "result": 19.36}, {"measurement": "GR50 ratio Aminopyralid/Indaziflam", "setting": "[3]", "result": 1.14}, {"measurement": "GR50 (herbicide dose resulting in 50% dry biomass reduction)", "setting": "[3]; pre-emergence", "result": 1.10, "unit": "a g ai ha^−1"}, {"measurement": "GR50 ratio Aminocyclopyrachlor/Indaziflam", "setting": "[4]", "result": 19.33}, {"measurement": "GR50 ratio Aminopyralid/Indaziflam", "setting": "[4]", "result": 246.67}, {"measurement": "GR50 ratio Aminocyclopyrachlor/Indaziflam", "setting": "[4]; listed as indaziflam", "result": 19}, {"measurement": "GR50 ratio Aminopyralid/Indaziflam", "setting": "[4]; listed as indaziflam", "result": 247}, {"measurement": "GR50 (herbicide dose resulting in 50% dry biomass reduction)", "setting": "[4]; pre-emergence", "result": 0.06, "unit": "a g ai ha^−1"}, {"measurement": "GR50 ratio Aminocyclopyrachlor/Indaziflam", "setting": "[5]", "result": 10.69}, {"measurement": "GR50 ratio Aminopyralid/Indaziflam", "setting": "[5]", "result": "4 and 4.31"}, {"measurement": "GR50 (herbicide dose resulting in 50% dry biomass reduction)", "setting": "[5]; pre-emergence", "result": 0.58, "unit": "a g ai ha^−1"}, {"measurement": "GR50 ratio Aminocyclopyrachlor/Indaziflam", "setting": "[6]", "result": 2.89}, {"measurement": "GR50 ratio Aminopyralid/Indaziflam", "setting": "[6]", "result": "9 and 8.64"}, {"measurement": "GR50 (herbicide dose resulting in 50% dry biomass reduction)", "setting": "[6]; pre-emergence", "result": 0.36, "unit": "a g ai ha^−1"}, {"measurement": "GR50 ratio Aminocyclopyrachlor/Indaziflam", "setting": "[7]", "result": 12.29}, {"measurement": "GR50 ratio Aminopyralid/Indaziflam", "setting": "[7]", "result": "5 and 4.71"}, {"measurement": "GR50 (herbicide dose resulting in 50% dry biomass reduction)", "setting": "[7]; pre-emergence", "result": 0.17, "unit": "a g ai ha^−1"}, {"measurement": "GR50 ratio Aminocyclopyrachlor/Indaziflam", "setting": "[8]", "result": 3.79}, {"measurement": "GR50 ratio Aminopyralid/Indaziflam", "setting": "[8]", "result": 0.94}, {"measurement": "GR50 (herbicide dose resulting in 50% dry biomass reduction)", "setting": "[8]; pre-emergence", "result": 0.33, "unit": "a g ai ha^−1"}, {"measurement": "GR50 ratio Aminocyclopyrachlor/Indaziflam", "setting": "[9]", "result": 144.62}, {"measurement": "GR50 ratio Aminopyralid/Indaziflam", "setting": "[9]", "result": 98.72}, {"measurement": "GR50 ratio Aminocyclopyrachlor/Indaziflam", "setting": "[9]; listed as indaziflam", "result": 125}, {"measurement": "GR50 ratio Aminopyralid/Indaziflam", "setting": "[9]; listed as indaziflam", "result": 99}, {"measurement": "GR50 (herbicide dose resulting in 50% dry biomass reduction)", "setting": "[9]; pre-emergence", "result": 0.39, "unit": "a g ai ha^−1"}, {"measurement": "seedling control of invasive weeds compared with the untreated (FIG. 4A-4D)", "setting": "[10]", "result": "improved seedling control of invasive weeds"}, {"measurement": "Log Kow", "setting": "[11]", "result": 2.8}, {"measurement": "water solubility", "setting": "[12]", "result": 3.6, "unit": "µg/mL"}]}]}
